Experiment [1] relates to Human dermal papilla cells (hDPC). The experiment in a line: Passage culture of dermal papilla cells in albumin-added serum-free medium in the presence or absence of rotenone (density, doubling time, accumulated cell number, viability). The format is cell-based. The procedure: hDPCs were prepared in the same manner as in Example 1. […] The hDPCs were inoculated at a concentration of 1.52×10^5/flask. After culturing in a 5% carbon dioxide incubator at 37° C., photographs of the cells were taken before passage to confirm the density of dermal papilla cells according to the rotenone treatment.
On the other hand, each time the density of the cells proliferated to 90% or more, the cells were passaged. During the passage, the cells were detached from each flask by the use of TrypLE Express, and then the cells were centrifuged. The supernatant was discarded to leave only the cells in the lower layer. The cells were well resuspended by adding a condition-based medium, and then the cell numbers were measured using NC250™ (Chemometec, Denmark). Using the measured cell number and culture time, the doubling time and accumulated cell numbers per day were calculated using the following Equation.
A=previous passage, B=current passage
Doubling time=ln(2)×(Δtime between B and A)/ln(count B/count A) [Equation 1]
Accumulated cell number (ACN)=ACN of A×cell count of B/seeding number [Equation 2]
Each time the density of the cells proliferated to 90% or more, the cells were passaged. During the passage, the cells were detached from each flask by the use of TrypLE Express, and then the cells were centrifuged. The supernatant was discarded to leave only the cells in the lower layer. The cells were well resuspended by adding a condition-based medium, and then the cell viability was measured using NC250™(Chemometec, Denmark) at each passage.

Experiment [2] has the same test system. The experiment in a line: Flow cytometry of dermal papilla cell biological markers. It counts as cell-based. To be noted: serum-free medium with 0.1 g/L albumin and 1 to 100 pM rotenone versus control not treated with rotenone; FIG. 4. The method, then: The cells were detached from each flask by the use of TrypLE Express, and then the cells were centrifuged. The supernatant was discarded to leave only the cells in the lower layer. The cells were fixed for 15 minutes using a 4% formaldehyde solution, and then reacted on ice for 10 minutes using a 0.5% tween-20 permeabilization solution to prepare cells. The prepared cells were well resuspended in PBS supplemented with 1% FBS, and then the cells were stained using an antibody serving as a previously selected biological marker. CD34 and HLA-DR were selected as negative markers, and alkaline phosphatase, versican, and CD105 were selected as positive markers. After fixing the stained cells with 4% formaldehyde solution for 15 minutes, and flow cytometry was performed using CytoFLEX (Beckman Coulter, USA).

The subject of the next experiment is cell division. The note with it: background statement; cited from earlier work.
Experiment [3] concerns Human dermal papilla cells (hDPC). The experiment in a line: CCK-8 proliferation of dermal papilla cells in serum-free medium treated with rotenone. The format is cell-based. The note with it: rotenone 10 to 100 pM, 72 hours, compared to control group (untreated) and PromoCell medium, FIG. 1. The method, then:
Human dermal papilla cells (hDPC) purchased from PromoCell were inoculated in a Follicle Dermal Papilla cell Growth media (Promocell, Heidelberg, Germany) supplemented with 1% Antibiotic and Antimycotic Hyclone sv30079.91 (hereinafter referred to as Promocell medium), and a serum-free medium, and cultured in a 5% carbon dioxide incubator at 37° C. to prepare cells. The prepared human dermal papilla cells (hDPCs) were seeded at a concentration of 2×10^3/well into 96-well plates, in which a serum-free medium treated with different concentrations (0, 1, 10, 100, 1000 pM) of rotenone (Tocris Bioscience, UK) was put, in a Follicle Dermal Papilla cell Growth media as a commercially available medium, and then cultured for 72 hours. Then, the culture medium in each well was removed, then added to 10 ul CCK-8 reagent and 90 ul medium, respectively, and cultured for 2 hours at a temperature of 37° C. The absorbance of the supernatant was measured at 450 nm using an ELISA reader to confirm the extent of cell proliferation.

Molecules are shown by their SMILES.

With `C=C(C)[C@H]1Cc2c(ccc3c2OC2COc4cc(OC)c(OC)cc4C2C3=O)O1` (stereo in doubt) [rotenone, (2R,6aS,12aS)-1,2,6,6a,12 ,12a-hexahydro-2-isopropenyl-8,9-dimethoxychromeno[3,4-b]furo(2,3-h)chromen-6-one], the “cell density of dermal papilla cells” value in experiment [1] (10 pM rotenone versus rotenone-untreated group, serum-free medium with 0.1 g/L albumin, FIG. 3a) is “higher cell density”. In addition, the doubling time entry in experiment [1] (rotenone -treated versus rotenone-untreated group, serum-free medium with 0.1 g/L albumin, FIG. 3b) is reported as “lower doubling time”. The cell viability result in experiment [1] (rotenone-treated versus rotenone-untreated group, 0.1 g/L albumin, each passage, FIG. 3d) is “higher cell viability”. In addition, the “accumulated cell numbers over time” value in experiment [1] (rotenone-treated versus rotenone-untreated group, 0.1 g/L albumin, FIG. 3c) is “higher”. In addition, in experiment [2], the “biological positive markers (alkaline phosphatase, versican, CD105)” value is listed as “maintained at higher levels” and the “negative markers (CD34, HLA-DR)” value is reported as “maintained at lower levels”. Moreover, in the experiment with cell division, the “concentrations at which rotenone is known to inhibit cell division” value was 10 to 100 nM. Further, the “proliferation of dermal papilla cells (CCK-8, absorbance 450 nm)” value in experiment [3] was “proliferation of dermal papilla cells increases”.

Source of the values: patent US20230416677A1 (XCELL THERAPEUTICS INC., priority 2020, published 2023).
